For experiment [1], the system named is Phosphorylation of ERK1/2 in MIA PaCa-2 cells. The experiment is described as follows: Phospho-ERK1/2 MSD assay in MIA PaCa-2 cells. Particulars: read-out: p-ERK IC50 (2 h; MIA PaCa-2), 2 h compound treatment. It is filed as cell-based. The method, boiled down: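 MIA PaCa-2 or A549 cells were treated with a compound dose-response titration for 2 or 4 h at 37 °C, then stimulated with 10 ng/mL EGF for 10 min. Phospho-ERK1/2 in RIPA lysates was measured by MSD whole-cell lysate immunoassay, and IC50 came from a 4-parameter logistic fit.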

Experiment [2] concerns the target GDP-bound KRAS protein (aa 1-169), containing both G12C and C118A amino acid substitutions (Homo sapiens, UniProt P01116, C118A/G12C). The experiment is described as follows: Coupled nucleotide exchange assay (SOS-mediated, AlphaScreen). It is filed as biochemical. Conditions: 5 min compound pre-incubation.

Structures are written as SMILES. Like-named read-outs stand apart in the source and are kept apart here.

In general, IC50 refers to the concentration that gives 50% inhibition.

Sequence of GDP-bound KRAS protein (aa 1-169), containing both G12C and C118A amino acid substitutions (P01116 1-169 isoform P01116-2 G12C/C118A): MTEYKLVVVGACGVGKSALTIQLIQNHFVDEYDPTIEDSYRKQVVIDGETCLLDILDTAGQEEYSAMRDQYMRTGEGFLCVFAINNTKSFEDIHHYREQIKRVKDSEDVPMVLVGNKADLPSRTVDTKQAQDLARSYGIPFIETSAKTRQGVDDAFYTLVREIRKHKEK

Regarding `C=CC(=O)N1CCN(c2nc(=O)n(-c3ccccc3C(C)C)c3nc(-c4nc(N)cc5ccccc45)c(Cl)cc23)[C@@H](C)C1` [Example 70-2, 7-(3-amino-1-isoquinolinyl)-6-chloro-4-((2S)-2-methyl-4-(2-propenoyl)-1-piperazinyl)-1-(2-(2-propanyl)phenyl)pyrido[2,3-d]pyrimidin-2(1H)-one], in experiment [1] (Homo sapiens, MIA PaCa-2, 2 h), the IC50 was 213 nM. Besides, the “Coupled exchange IC50 (5 min)” value in experiment [2] is listed as 0.184 | nda μM.

As for `C=CC(=O)N1CCN(c2nc(=O)n(-c3c(C)cccc3C(C)C)c3nc(-c4nc(N)ccc4Cl)c(Cl)cc23)[C@@H](C)C1` [Example 70-3, 7-(6-amino-3-chloro-2-pyridinyl)-6-chloro-1-(2-methyl-6-(2-propanyl)phenyl)-4-((2S)-2-methyl-4-(2-propenoyl)-1-piperazinyl)pyrido[2,3-d]pyrimidin-2(1H)-one], the IC50 in experiment [1] (Homo sapiens, MIA PaCa-2, 2 h) is 206 nM. Also, in experiment [2], the “Coupled exchange IC50 (5 min)” value is given as 0.125 | nda μM.

Turning to `C=CC(=O)N1CCN(c2nc(=O)n(-c3c(C)cccc3C(C)C)c3nc(-c4nc(N)ccc4F)c(Cl)cc23)[C@@H](C)C1` [Example 70-4, 7-(6-amino-3-fluoro-2-pyridinyl)-6-chloro-1-(2-methyl-6-(2-propanyl)phenyl)-4-((2S)-2-methyl-4-(2-propenoyl)-1-piperazinyl)pyrido[2,3-d]pyrimidin-2(1H)-one], in experiment [1] (Homo sapiens, MIA PaCa-2, 2 h), the half-inhibitory concentration (IC50) is 280 nM. Further, the “Coupled exchange IC50 (5 min)” value in experiment [2] is recorded as 0.398 | nda μM.

Regarding `C=CC(=O)N1CCN(c2nc(=O)n(-c3ccccc3C(C)C)c3nc(-c4ccccc4F)c(C)cc23)[C@@H](C)C1` [Example 74-1, 7-(2-Fluorophenyl)-6-methyl-4-((2S)-2-methyl-4-(2-propenoyl)-1-piperazinyl)-1-(2-(2-propanyl)phenyl)pyrido[2,3-d]pyrimidin-2(1H)-one], the IC50 in experiment [1] (Homo sapiens, MIA PaCa-2, 2 h) came to 621 nM. The “Coupled exchange IC50 (5 min)” value in experiment [2] is 0.951 | nda μM.

As for `C=CC(=O)N1CCN(c2nc(=O)n(-c3c(C)ccnc3C(C)C)c3nc(-c4ccccc4F)c(C)cc23)[C@@H](C)C1` [Example 74-2, 7-(2-fluorophenyl)-6-methyl-1-(4-methyl-2-(2-propanyl)-3-pyridinyl)-4-((2S)-2-methyl-4-(2-propenoyl)-1-piperazinyl)pyrido[2,3-d]pyrimidin-2(1H)-one], in experiment [1] (Homo sapiens, MIA PaCa-2, 2 h), the IC50 turned out to be 300 nM. For the same compound, the “Coupled exchange IC50 (5 min)” value in experiment [2] was 0.228 | nda μM.

As to `C=CC(=O)N1CCN(c2nc(=O)n(-c3c(C)ccnc3C(C)C)c3nc(-c4c(O)cccc4F)c(C)cc23)[C@@H](C)C1` [Example 74-3, 7-(2-fluoro-6-hydroxyphenyl)-6-methyl-1-(4-methyl-2-(2-propanyl)-3-pyridinyl)-4-((2S)-2-methyl-4-(2-propenoyl)-1-piperazinyl)pyrido[2,3-d]pyrimidin-2(1H)-one], in experiment [1] (Homo sapiens, MIA PaCa-2, 2 h), the IC50 was 347 nM. For the same compound, the “Coupled exchange IC50 (5 min)” value in experiment [2] is on record as 0.136 | nda μM.

On to `C=CC(=O)N1CCN(c2nc(=O)n(-c3c(C)cc(CN(C)C)cc3C(C)C)c3nc(-c4ccccc4F)c(Cl)cc23)[C@@H](C)C1` [Example 80-1, 6-Chloro-1-(4-((dimethylamino)methyl)-2-methyl-6-(2-propanyl)phenyl)-7-(2-fluorophenyl)-4-((2S)-2-methyl-4-(2-propenoyl)-1-piperazinyl)pyrido[2,3-d]pyrimidin-2(1H)-one], for which, in experiment [1] (Homo sapiens, MIA PaCa-2, 2 h), the IC50 was 52 nM. Moreover, in experiment [2], the “Coupled exchange IC50 (5 min)” value is 0.08 | nda μM.

On to `C=CC(=O)N1CCN(c2nc(CN(C)C)c(-c3ccccc3C(C)C)c3nc(-c4ccccc4F)c(Cl)cc23)[C@@H](C)C1` [Example 86-1, 1-((3S)-4-(3-Chloro-7-((dimethylamino)methyl)-2-(2-fluorophenyl)-8-(2-isopropylphenyl)-1,6-naphthyridin-5-yl)-3-methylpiperazin-1-yl)prop-2-en-1-one], for which, in experiment [1] (Homo sapiens, MIA PaCa-2, 2 h), the IC50 is 4300 nM. Moreover, the “Coupled exchange IC50 (5 min)” value in experiment [2] was 3.95 | nda μM.

Consider `C=CC(=O)N1C[C@H](C)N(c2nc(=O)n(-c3c(C(C)C)ncnc3C(C)C)c3nc(-c4ccccc4F)c(Cl)cc23)[C@@H](C)C1` [Example 87-1, 6-Chloro-4-((2S,6S)-2,6-dimethyl-4-(2-propenoyl)-1-piperazinyl)-1-(4,6-di(2-propanyl)-5-pyrimidinyl)-7-(2-fluorophenyl)pyrido[2,3-d]pyrimidin-2(1H)-one], for which, in experiment [1] (Homo sapiens, MIA PaCa-2, 2 h), the IC50 worked out at 11 nM. Also, in experiment [2], the “Coupled exchange IC50 (5 min)” value is 0.034 | nda μM.

Take `C=CC(=O)N1C[C@@H](C)N(c2nc(=O)n(-c3c(C(C)C)ncnc3C(C)C)c3nc(-c4ccccc4F)c(Cl)cc23)[C@@H](C)C1` [Example 87-2, 6-chloro-4-((2R,6S)-2,6-dimethyl-4-(2-propenoyl)-1-piperazinyl)-1-(4,6-di(2-propanyl)-5-pyrimidinyl)-7-(2-fluorophenyl)pyrido[2,3-d]pyrimidin-2(1H)-one]: the IC50 in experiment [1] (Homo sapiens, MIA PaCa-2, 2 h) was 33 nM. In experiment [2], the “Coupled exchange IC50 (5 min)” value was 0.035 | nda μM.

For the compound `C=CC(=O)N1CCN(c2nc(=O)n(-c3c(C(C)C)ncnc3C(C)C)c3nc(-c4ccc(C#N)cc4F)c(Cl)cc23)[C@@H](C)C1` [Example 87-4, 4-(6-chloro-1-(4,6-di(2-propanyl)-5-pyrimidinyl)-4-((2S)-2-methyl-4-(2-propenoyl)-1-piperazinyl)-2-oxo-1,2-dihydropyrido[2,3-d]pyrimidin-7-yl)-3-fluorobenzonitrile], in experiment [1] (Homo sapiens, MIA PaCa-2, 2 h), the IC50 stood at 262 nM. For the same compound, the “Coupled exchange IC50 (5 min)” value in experiment [2] is 0.254 | nda μM.

Regarding `C=CC(=O)N1CCN(c2nc(=O)n(-c3c(C(C)C)ncnc3C(C)C)c3nc(-c4ccc(F)cc4N)c(Cl)cc23)[C@@H](C)C1` [Example 87-5, 7-(2-amino-4-fluoropheny-1)-6-chloro-1-(4,6-di(2-propanyl)-5-pyrimidinyl)-4-((2S)-2-methyl-4-(2-propenoyl)-1-piperazinyl)pyrido[2,3-d]pyrimidin-2(1H)-one], the IC50 in experiment [1] (Homo sapiens, MIA PaCa-2, 2 h) came out at 181 nM. Besides, the “Coupled exchange IC50 (5 min)” value in experiment [2] is listed as 0.251 | nda μM.

Regarding `C=CC(=O)N1CCN(c2nc(=O)n(-c3ccccc3C(C)C)c3nc(-c4c(F)cccc4C#N)c(Cl)cc23)[C@@H](C)C1` [Example 98, 2-(6-Chloro-4-((2S)-2-methyl-4-(2-propenoyl)-1-piperazinyl)-2-oxo-1-(2-(2-propanyl)phenyl)-1,2-dihydropyrido[2,3-d]pyrimidin-7-yl)-3-fluorobenzonitrile], the IC50 in experiment [1] (Homo sapiens, MIA PaCa-2, 2 h) amounted to 207 nM. Also, the “Coupled exchange IC50 (5 min)” value in experiment [2] is recorded as 0.27 | nda μM.

Take `C=CC(=O)N1CCN(c2nc(=O)n(-c3ncncc3C(C)C)c3nc(-c4ccccc4F)c(Cl)cc23)[C@@H](C)C1` [Example 99, 6-Chloro-7-(2-fluorophenyl)-4-((2S)-2-methyl-4-(2-propenoyl)-1-piperazinyl)-1-(5-(2-propanyl)-4-pyrimidinyl)pyrido[2,3-d]pyrimidin-(1H)-one]: the IC50 worked out at 72 nM in experiment [1] and 237 nM in experiment [2] (read-out: Coupled exchange IC50 (5 min)).

`C=CC(=O)N1CCN(c2nc(=O)n(-c3cccnc3CC(C)C)c3nc(-c4ccccc4F)c(Cl)cc23)[C@@H](C)C1` [Example 101, 6-Chloro-7-(2-fluorophenyl)-4-((2S)-2-methyl-4-(2-propenoyl)-1-piperazinyl)-1-(2-(2-methylpropyl)-3-pyridinyl)pyrido[2,3-d]pyrimidin-2(1H)-one]: the IC50 in experiment [1] (Homo sapiens, MIA PaCa-2, 2 h) turned out to be 148 nM. The “Coupled exchange IC50 (5 min)” value in experiment [2] was 0.147 | nda μM.

Take `C=CC(=O)N1CCN(c2nc(=O)n(-c3c(C)cccc3C(C)C)c3nc(-c4ccccc4F)c(C)cc23)[C@@H](C)C1` [Example 102, 7-(2-Fluorophenyl)-6-methyl-1-(2-methyl-6-(2-propanyl)phenyl)-4-((2S)-2-methyl-4-(2-propenoyl)-1-piperazinyl)pyrido[2,3-d]pyrimidin-2(1H)-one]: in experiment [1] (Homo sapiens, MIA PaCa-2, 2 h), the IC50 stood at 667 nM. In addition, the “Coupled exchange IC50 (5 min)” value in experiment [2] is on record as 0.421 | nda μM.

As to `C=CC(=O)N1CCN(c2nc(=O)n(-c3c(CC)cccc3CC)c3cc(-c4ccccc4F)c(Cl)cc23)[C@@H](C)C1` [Example 103, 6-Chloro-1-(2,6-diethylphenyl)-7-(2-fluorophenyl)-4-((2S)-2-methyl-4-(2-propenoyl)-1-piperazinyl)-2(1H)-quinazolinone], the IC50 in experiment [1] (Homo sapiens, MIA PaCa-2, 2 h) stood at 178 nM. Besides, the “Coupled exchange IC50 (5 min)” value in experiment [2] is on record as 0.099 | nda μM.

As for `C=CC(=O)N1CCN(c2nc(=O)n(-c3ncccc3C(C)C)c3cc(-c4ccccc4F)c(Cl)cc23)[C@@H](C)C1` [Example 104, 6-Chloro-7-(2-fluorophenyl)-4-((2S)-2-methyl-4-(2-propenoyl)-1-piperazinyl)-1-(3-(2-propanyl)-2-pyridinyl)-2(1H)-quinazolinone], the IC50 in experiment [1] (Homo sapiens, MIA PaCa-2, 2 h) was 78 nM. Further, the “Coupled exchange IC50 (5 min)” value in experiment [2] is on record as 0.062 | nda μM.

As for `C=CC(=O)N1CCN(c2nc(=O)n(-c3scnc3C(C)C)c3cc(-c4ccccc4F)c(Cl)cc23)[C@@H](C)C1` [Example 105, 6-Chloro-7-(2-fluorophenyl)-4-((2S)-2-methyl-4-(2-propenoyl)-1-piperazinyl)-1-(4-(2-propanyl)-1,3-thiazol-5-yl)-2(1H)-quinazolinone], in experiment [1] (Homo sapiens, MIA PaCa-2, 2 h), the IC50 came out at 65 nM. Also, the “Coupled exchange IC50 (5 min)” value in experiment [2] is 0.051 | nda μM.

Take `C=CC(=O)N1CCN(c2nc(=O)n(-c3c(C)cccc3C(C)C)c3cc(-c4c(O)cccc4F)c(Cl)cc23)[C@@H](C)C1` [Example 106, 6-Chloro-7-(2-fluoro-6-hydroxyphenyl)-1-(2-methyl-6-(2-propanyl)phenyl)-4-((2S)-2-methyl-4-(2-propenoyl)-1-piperazinyl)-2(1H)-quinazolinone]: the IC50 in experiment [1] (Homo sapiens, MIA PaCa-2, 2 h) turned out to be 105 nM. In experiment [2], the “Coupled exchange IC50 (5 min)” value is 0.074 | nda μM.

With `C=CC(=O)N1CCN(c2nc(=O)n(-c3ccccc3C(C)C)c3cc(-c4ccccc4F)c(Cl)nc23)[C@@H](C)C1` [Example 110, 6-Chloro-7-(2-fluorophenyl)-4-((2S)-2-methyl-4-(2-propenoyl)-1-piperazinyl)-1-(2-(2-propanyl)phenyl)pyrido[3,2-d]pyrimidin-2(1H)-one], the IC50 in experiment [1] (Homo sapiens, MIA PaCa-2, 2 h) was determined as 426 nM. Further, in experiment [2], the “Coupled exchange IC50 (5 min)” value is on record as 0.166 | nda μM.
